Experimental data published in patent US11707519B2, “Phosphorylated heptose compounds: process for their preparation and use” (priority 2017, dated 2023).

What was measured:
THP-1 cells = experiment: IL-8 ELISA after stimulation of human macrophage cells (THP-1); assay type: cell-based; settings: THP-1, 30 μM or 150 μM synthetic compound, 20 minutes with digitonin, then 6 hours; FIG. 37
Experimental: (§1) FIG. 37: Stimulation of human macrophages by compounds/products according to the invention. Human macrophage cells (THP-1) were stimulated for 20 minutes in permeabilization buffer (5 μg/mL digitonin) in the presence of water, 39.8 μM of the Nod1 agonist C12-iE-DAP (which stimulates in a TIFA-independent manner), or either 30 μM or 150 μM of synthetic compound according to the invention. Treatment was removed, cells were washed, and cells were incubated for 6 hours in complete media before the IL-8 levels in culture supernatants were measured by ELISA. The results are the mean and standard error of the mean of three technical replicates. Nod1 agonist: C12-iE-DAP (20 μg/mL, 39.8 μM); HBP: D-glycero-1-D-manno-heptose-1β,7-bi-phosphate.
as §1, with “Stimulation” for “FIG. 37: Stimulation”, “ELISA (FIG. 37).” for “ELISA.”, “Nod1 agonist: C12-iE-DAP (20 μg/mL, 39.8 μM); HBP: D-glycero-1-D-manno-heptose-1β,7-bi-phosphate.” left out

N. meningitidis = experiment: Challenge of immunized mice with N. meningitidis strain expressing matching TbpB (sepsis model); assay type: in vivo, C57BL/6NCrl mice; settings: TbpB with adjuvant as opposed to TbpB alone
Experimental: (§2) FIG. 38: 6-week-old male C57BL/6NCrl mice were immunized with TbpB originating from group B N. meningitidis, purified from recombinant E. coli. All groups were immunized with 25 μg of TbpB with or without adjuvant, in a total volume of 30 μL intramuscularly: TbpB alone, TbpB+alum, and TbpB+HBP (200 μg). Three doses were given: D0, D21, and D28. Serum was collected at D0 prior to immunization, D14, D28, and D35 and then examined by ELISA for IgG titers to TbpB (FIG. 38A). Mice were challenged on D36 with 5×10^7 of N. meningitidis strain expressing the homologous TbpB. Mice were injected with human transferrin (200 μL of 8 mg/mL) as this is critical for the development of sepsis in this model. Mice were monitored at the 1 h, 12 h, 18 h, 24 h, and 36 h time points. At 1 h, blood was collected to enumerate CFUs (FIG. 38B). Clinical scores were collected at 12 h post challenge (FIG. 38C).
(§3) HBP can act as an adjuvant. 6-week-old male C57BL/6NCrl mice were immunized with TbpB originating from group B N. meningitidis, purified from recombinant E. coli. All groups were immunized with 25 μg of TbpB with or without adjuvant, in a total volume of 30 μL intramuscularly TbpB, TbpB+alum, and TbpB+HBP (equimolar to 200 μg). Three doses were given: D0, D21, D28. […] Mice were monitored at the 1 h, 12 h, 18 h, 24 h, and 36 h time points. […]

[1] = tested on: NF-κB-driven luciferase reporter in HEK 293T cells; experiment: NF-κB-driven luciferase reporter assay in HEK 293T cells; assay type: cell-based; settings: 20 μg/mL synthetic compound, 20 minutes in permeabilization buffer (5 μg/mL digitonin), then 3.5 hours in complete medium; FIG. 35
Experimental: (§4) FIG. 35: Effects of compounds/products according to the invention on HEK 293T cells encoding an NF-κB-driven luciferase reporter gene. HEK 293T cells were transfected with a plasmid encoding an NF-κB-driven luciferase reporter. After 24 hours, cells were stimulated for 20 minutes in permeabilization buffer (5 μg/mL digitonin) in the presence of culture supernatant from N. meningitidis mutants with (gmhB) or without (hldA) HBP or 20 μg/mL of synthetic compounds according to the invention. Treatment was removed; cells were washed and incubated for 3.5 hours in complete medium. A luciferase assay was then performed. The results are mean of technical triplicates.
as §4, with “HEK” for “FIG. 35: Effects of compounds/products according to the invention on HEK 293T cells encoding an NF-κB-driven luciferase reporter gene. HEK”, “compound” for “compounds”, “results obtained are illustrated in FIG. 35. They” for “results”

[2] = tested on: TbpB originating from group B N. meningitidis; experiment: Adjuvant test: mice immunized with TbpB, serum IgG titers to TbpB by ELISA; assay type: in vivo, C57BL/6NCrl mice; settings: 25 μg TbpB with adjuvant intramuscularly, doses D0, D21, D28; serum D14, D28, D35; compared with TbpB alone and TbpB+alum; FIG. 38A
Experimental: as §2, §3

HCT 116 cells = experiment: IL-8 ELISA after stimulation of human colonic epithelial cells (HCT 116, WT or TIFA KO); assay type: cell-based; settings: 10 μg/mL synthetic compound, 20 minutes with digitonin, then 6 hours, FIG. 36
Experimental: (§5) FIG. 36: Stimulation of human colonic epithelial cells by compounds/products according to the invention. Human colonic epithelial cells (HCT 116) that were either wild type (WT) or deficient in TIFA protein expression (knockout, KO) were stimulated for 20 minutes in permeabilization buffer (5 μg/mL digitonin) in the presence of culture supernatant from N. meningitidis mutants with (gmhB) or without (hldA) HBP or 10 μg/mL of synthetic compound according to the invention. Treatment was removed, cells were washed, and cells were incubated for 6 hours in complete media and IL-8 levels in culture supernatants were measured by ELISA. The results are mean of technical duplicates.
as §5, with “Human” for “FIG. 36: Stimulation of human colonic epithelial cells by compounds/products according to the invention. Human”, “results obtained are illustrated in FIG. 36. They” for “results”

For `O=P(O)(O)OC[C@@H](O)[C@H]1O[C@@H](OP(=O)(O)O)[C@@H](O)[C@@H](O)[C@@H]1O` [HBP, D-glycero-D-manno-heptopyranose 1β,7-bisphosphate], the “cytokine expression (IL-8 levels in culture supernatants)” value (THP-1 cells) was “can drive cytokine expression in vitro”, the clinical scores (N. meningitidis; challenge D36, 12 h post challenge, FIG. 38C) was “lower” and the “bacterial burden (CFU in blood)” value (N. meningitidis; challenge D36 with 5×10^7 N. meningitidis, blood at 1 h, FIG. 38B) was “reduced”. The “NF-κB stimulation (luciferase assay)” value [1] was “can immunomodulate via NF-κB stimulation in vitro”, the “IgG titers to TbpB” value [2] was “significantly higher than administration of TbpB alone and greater than observed with alum as the adjuvant” and the “cytokine expression (IL-8 levels in culture supernatants)” value (HCT 116 cells) was “can drive cytokine expression in vitro”.
